Laboratory results reported in the NIST ThermoML archive (doi:10.1021/acs.jced.8b00302).
± gives the expanded uncertainty stated by the source.

Assay: wn = mass fraction of the nth substance listed
Details: 298.2 K, 100 kPa, Liquid, Gravity bottle method

Compound	mass density (w1 = 0.3365) [kg/m3]	mass density (w1 = 0.6463) [kg/m3]	mass density (w1 = 0.2743) [kg/m3]
O=S(=O)([O-])[O-].[Cs+].[Cs+] [cesium sulfate] + O	1363.1 ± 10	2016.2 ± 10	
O=S(=O)([O-])[O-].[Mg+2] [magnesium sulfate] + O			1293 ± 10
O=S(=O)([O-])[O-].[Rb+].[Rb+] [rubidium sulfate] + O		2016.2 ± 10	
